Here are results for twelve compounds from ChEMBL document CHEMBL1201862, “PubChem BioAssay data set” (2004).

What all share (experiment): DTP human tumour cell line panel, 48 h
For assay [1], the system named is A549.
In assay [2] the test system is ACHN.
The subject of assay [3] is CCRF-CEM.
In assay [4] the test system is COLO 205.
The test system of assay [5] is HCT-116.
Assay [6] has as its system HT-29.
Assay [7] deals with IGROV-1.
In assay [8] the test system is K562.
The test system of assay [9] is KM12.
Assay [10] has as its system M14.
The test system of assay [11] is MOLT-4.
Assay [12] has as its system OVCAR-4.
The test system of assay [13] is SF-539.
The subject of assay [14] is SR.
For assay [15], the system named is UACC-257.
In assay [16] the test system is UACC-62.
Assay [17] deals with DU-145.
Assay [18] deals with MDA-MB-435.
In assay [19] the test system is PC-3.
Assay [20] deals with NCI/ADR-RES.

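1) Cells in 96-well plates. 2) Compound, 48 h, 5 concentrations. 3) Linear interpolation between surrounding doses. 4) Unreached endpoint = highest concentration. The concentration for 50% growth inhibition is given as GI50.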 Activity calls are given as the source filed them. Cut-off read from the data, not from the text of the source: active = GI50 up to about 1.1 µM and inactive = higher.

For orientation: GI50 means the concentration giving 50% growth inhibition.

As to `CC1=CC2=C(C)C3(CC3)[C@@](C)(O)C(=O)C2=C1`, the concentration for 50% growth inhibition (GI50) in assay [1] was 0.314 µM (active); in assay [2] it was 0.176 µM (active); in [3], > 1 µM (active); in [4], 0.221 µM (active); in assay [5], 0.171 µM (active); in [6], 0.227 µM (active). Moreover, the 50% growth inhibitory concentration (GI50) in assay [7] was 0.29 µM (active); in assay [8] it was > 1 µM (active); in assay [9], 0.355 µM (active); in assay [10], 0.171 µM (active); in [11], > 1 µM (active); in [12] it was 0.174 µM (active). The 50% growth inhibitory concentration (GI50) in assay [13] is 0.219 µM (active); in [14], > 1 µM (active); in assay [15], 0.237 µM (active); in [16] it was 0.21 µM (active).
On to `Cn1c2c(c3ccccc31)CCN(CCCCN1CCN(c3ccccc3)CC1)C2=O`, for which the GI50 was 97.3 µM (inactive) in assay [1]; > 100 µM (inactive) in [2]; 24.5 µM (inactive) in assay [3]; 8.51 µM (inactive) in assay [4]; 35.9 µM (inactive) in assay [17]; 12.9 µM (inactive) in assay [5]. Also, the GI50 in [6] is 4.16 µM (inactive); in [7] it was > 76.6 µM (inactive); in assay [8], 4.15 µM (inactive); in assay [9] it was 30.1 µM (inactive); in assay [10], 4.58 µM (inactive); in assay [18], 17.5 µM (inactive). In addition, the GI50 in [11] was 7.38 µM (inactive); in assay [12], 42.1 µM (inactive); in [19], 11.7 µM (inactive); in assay [13], 34 µM (inactive); in [14], 8.93 µM (inactive); in assay [15], 5.86 µM (inactive). Moreover, the GI50 in assay [16] was 31.8 µM (inactive).
As for `CN(C)CCNC(=O)c1cccc2ccc(-c3ccc(Br)cc3)nc12`, the GI50 in assay [1] was 1.09 µM (active); in [3] it was 1.09 µM (active); in [4] it was 0.944 µM (active); in [5] it was 1.23 µM (inactive); in [6], 1.61 µM (inactive); in assay [7] it was 2.96 µM (inactive). Also, the GI50 in [8] was 1.7 µM (inactive); in assay [9], 3.45 µM (inactive); in assay [11], 0.333 µM (active); in assay [20] it was 1.8 µM (inactive); in assay [12], 2.76 µM (inactive); in assay [13] it was 3.13 µM (inactive). For the same compound, the GI50 is 2.8 µM (inactive) in assay [15] and 1.8 µM (inactive) in assay [16].
Regarding `Cc1c(-c2ccccc2)[nH]c2cc(Cl)ccc2c1=O`, the GI50 in assay [1] was 1.96 µM (inactive); in assay [2], 55.8 µM (inactive); in [3] it was > 100 µM (inactive); in [17], > 100 µM (inactive); in [5] it was 23.8 µM (inactive); in assay [6], > 100 µM (inactive). Further, the GI50 in [8] was 16.4 µM (inactive); in assay [9] it was 0.74 µM (active); in assay [10], 76.2 µM (inactive); in assay [18], 12 µM (inactive); in assay [11], > 100 µM (inactive); in assay [12], 22.9 µM (inactive). In addition, the GI50 in assay [13] is 39.8 µM (inactive); in assay [14], 18.7 µM (inactive); in assay [15], 49.2 µM (inactive); in assay [16], 54.6 µM (inactive).
As to `CCCCC(C)/C=C/C(O)=C1\C(=O)O/C(=C\C(=O)O)C1=O` (stereo not given), the GI50 in assay [1], in [2], in assay [3], in assay [4], in [5] and in [6] was > 100 µM (inactive) throughout. The GI50 in [7], in assay [8], in assay [9], in [10], in [11] and in assay [12] was > 100 µM (inactive) in each case. In addition, the GI50 in assay [13], in [14], in assay [15] and in assay [16] was > 100 µM (inactive) each time.
As for `COc1ccc(C2C=C(c3ccc(C)cc3)N(c3ccc(OC)cc3[N+](=O)[O-])C3C(=O)OC(=O)C23)c(OC)c1` (stereo not given), the GI50 is 37 µM (inactive) in assay [1]; 16 µM (inactive) in assay [2]; 35.1 µM (inactive) in [3]; 43.1 µM (inactive) in assay [4]; 28.2 µM (inactive) in assay [5]; 24.3 µM (inactive) in [6]. Besides, the GI50 in assay [7] was 15.2 µM (inactive); in [8] it was 37.8 µM (inactive); in assay [9], 7.8 µM (inactive); in assay [10], 34.3 µM (inactive); in assay [18], 44.3 µM (inactive); in [11], 32.6 µM (inactive). Besides, the GI50 in [12] is 62.5 µM (inactive); in assay [19], 42.4 µM (inactive); in assay [13], 24.4 µM (inactive); in assay [14], 20.1 µM (inactive); in assay [15], 77.6 µM (inactive); in [16] it was 49.4 µM (inactive).
With `O=C(O)COc1ccc(C(=O)/C(SS/C(C(=O)c2ccc(OCC(=O)O)c(Cl)c2Cl)=C2\C=C(c3ccc(Br)cc3)SS2)=C2/C=C(c3ccc(Br)cc3)SS2)c(Cl)c1Cl`, the GI50 is 33.9 µM (inactive) in assay [1]; 4.58 µM (inactive) in assay [2]; 3.21 µM (inactive) in assay [3]; 3.11 µM (inactive) in assay [4]; 16.8 µM (inactive) in assay [17]; 3.9 µM (inactive) in assay [5]. The GI50 in assay [6] is 12.2 µM (inactive); in assay [7], 4.99 µM (inactive); in assay [8], 2.92 µM (inactive); in assay [9] it was 8.13 µM (inactive); in [10], 11.1 µM (inactive); in [18], 30.3 µM (inactive). Also, the GI50 in [11] was 3.44 µM (inactive); in assay [12], 4.51 µM (inactive); in [13], 4.3 µM (inactive); in assay [15], 25.3 µM (inactive); in assay [16] it was 4.55 µM (inactive).
As for `CCOc1ccc(NC(=O)C(=O)CC(=O)c2c[n+]([O-])c3cc(C)c(C)cc3[n+]2[O-])cc1`, the GI50 in assay [1], in assay [2], in assay [3], in [4], in assay [5] and in assay [6] was > 100 µM (inactive) in each case. For the same compound, the GI50 in [7], in [8], in assay [9], in assay [10], in [11] and in assay [12] was > 100 µM (inactive) in each case. For the same compound, the GI50 in assay [13], in assay [14], in assay [15] and in assay [16] was > 100 µM (inactive) in each case.
On to `COCC1OC(OC2C3=C(C(C)C)CCC3(C)/C=C3\C(CCC3(O)COC)C(C)C2O)C(O)C2OC3OC12OC3(C)C1CO1` (stereo not given), for which the GI50 was 53.8 µM (inactive) in assay [1]; 47.2 µM (inactive) in assay [2]; 24.3 µM (inactive) in [3]; 41.5 µM (inactive) in assay [4]; 72.6 µM (inactive) in assay [17]; 34 µM (inactive) in assay [5]. For the same compound, the GI50 was 34.8 µM (inactive) in [6]; 37.8 µM (inactive) in assay [7]; 25.1 µM (inactive) in assay [8]; 52.8 µM (inactive) in assay [9]; 43.2 µM (inactive) in assay [10]; 31 µM (inactive) in [18]. Moreover, the GI50 in assay [11] is 27.6 µM (inactive); in [12], 25.5 µM (inactive); in [19] it was 35 µM (inactive); in assay [13], 24.8 µM (inactive); in [14], 41.8 µM (inactive); in assay [15], 40.3 µM (inactive). In addition, the GI50 in assay [16] is 21.9 µM (inactive).
Take `Cn1c(=O)n(C2(C)C[Se]C2)c2ccccc21`: the GI50 in assay [1], in assay [2], in assay [3], in assay [4], in [5] and in [6] was > 100 µM (inactive) throughout. Further, the GI50 in [7], in assay [8], in [9], in [10], in assay [11] and in [12] was > 100 µM (inactive) each time. The GI50 in assay [13], in [14], in assay [15] and in assay [16] was > 100 µM (inactive) in each case.
With `CC(=O)/C=C/C1=C(C)CCCC1(C)CC(C)C` (stereo not given), the GI50 in assay [1] is 24.9 µM (inactive); in assay [2], 22.1 µM (inactive); in assay [3], 14.9 µM (inactive); in assay [4], 30.3 µM (inactive); in [17], 69.3 µM (inactive); in assay [5], 25.5 µM (inactive). Moreover, the GI50 was 28 µM (inactive) in assay [6]; 29.3 µM (inactive) in assay [7]; 16 µM (inactive) in assay [8]; 34.8 µM (inactive) in assay [9]; 31.6 µM (inactive) in [10]; 32.5 µM (inactive) in assay [18]. Besides, the GI50 is 17.7 µM (inactive) in assay [11]; 63.8 µM (inactive) in [12]; 35 µM (inactive) in assay [19]; 31.9 µM (inactive) in [13]; 16 µM (inactive) in assay [14]; 22.2 µM (inactive) in assay [15]. In addition, the GI50 in [16] was 22.4 µM (inactive).
On to `C=C1C(=O)O[C@@H]2OC3(C)CCC4C(C)CCC1C42OO3` (stereo not given in full), for which the GI50 is 4.99 µM (inactive) in [1]; 1.47 µM (inactive) in assay [3]; 3.46 µM (inactive) in assay [4]; 1.53 µM (inactive) in assay [5]; 2.67 µM (inactive) in assay [6]; 3.58 µM (inactive) in [7]. In addition, the GI50 was 2.07 µM (inactive) in assay [8]; 3.38 µM (inactive) in [9]; 1.52 µM (inactive) in assay [11]; 2.42 µM (inactive) in assay [20]; 12.6 µM (inactive) in [12]; 2.48 µM (inactive) in assay [13]. Moreover, the GI50 was 3.18 µM (inactive) in assay [15] and 2.07 µM (inactive) in assay [16].
